± gives the standard deviation of the averaged measurements.
Columns and labels:
Assay in all cases: level (log10 ratio to DMSO vehicle control); higher = higher biomarker level / cell amount than vehicle control
Conditions in all cases: in DMSO
[1] = compound: O=C(O)CCC(F)(F)C(F)(F)C(F)(F)F [3:3 Fluorotelomer carboxylic acid]
Method: (§1)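 BioMAP Diversity Plus panel of 12 human primary cell co-culture systems (3C, 4H, LPS, SAg, BT, BF4T, BE3C, CASM3C, HDF3CGF, KF3CT, MyoF, Mphg). Compounds were added 1 h before stimulation and left for 24 h (MyoF 48 h; BT 72 h for soluble read-outs or 6 d for IgG). Biomarkers were read by ELISA, cytotoxicity by SRB, PBMC viability and proliferation by Alamar Blue. Each well value was divided by the mean of 8 DMSO control wells on the same plate and log10 transformed; duplicate blinded samples were tested at 4 concentrations.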

[2] = compound: O=S(=O)(O)C(F)(F)C(F)(F)C(F)(F)C(F)(F)C(F)(F)C(F)(F)C(F)(F)C(F)(F)F [Potassium perfluorooctanesulfonate]
Method: as §1

[3] = compound: O=S(=O)(O)C(F)(F)C(F)(F)C(F)(F)C(F)(F)C(F)(F)C(F)(F)C(F)(F)C(F)(F)F [Perfluorooctanesulfonic acid]
Method: as §1

Azathioprine = compound: Cn1cnc([N+](=O)[O-])c1Sc1ncnc2[nH]cnc12 [Azathioprine]
Method: as §1

[4] = compound: C=CC(=O)OCCC(F)(F)C(F)(F)C(F)(F)C(F)(F)F [2-(Perfluorobutyl)ethyl acrylate]
Method: as §1

[5] = compound: FC(F)(F)C(F)(F)C(F)(F)C(F)(F)C(F)(F)C(F)(F)C(F)(F)CCI [1-Iodo-1H,1H,2H,2H-perfluorononane]
Method: as §1

| Test System | level (log10) ([1]; 6700 nM) | level (log10) ([1]; 20000 nM) | level (log10) ([1]; 60000 nM) | level (log10) ([2]; 6700 nM) | level (log10) ([2]; 20000 nM) | level (log10) ([2]; 60000 nM) | level (log10) ([3]; 6700 nM) | level (log10) ([3]; 20000 nM) | level (log10) ([3]; 60000 nM) | level (log10) (Azathioprine; 1400 nM) | level (log10) (Azathioprine; 4200 nM) | level (log10) (Azathioprine; 13000 nM) | level (log10) (Azathioprine; 38000 nM) | level (log10) ([4]; 6700 nM) | level (log10) ([4]; 20000 nM) | level (log10) ([4]; 60000 nM) | level (log10) ([5]; 6700 nM) | level (log10) ([5]; 20000 nM) |
| --- | --- | --- | --- | --- | --- | --- | --- | --- | --- | --- | --- | --- | --- | --- | --- | --- | --- | --- |
| SAg:CCL2/MCP-1 | 0.005 ± 0.0014 | -0.0145 ± 0.016 | 0.0145 ± 0.028 | -0.015 ± 0.0071 | -0.0025 ± 0.0021 | 0.004 ± 0.013 | 0.003 | 0.004 ± 0.0042 | 0.0015 ± 0.0064 | -0.004 ± 0.017 | -0.0275 ± 0.0064 | -0.054 ± 0.011 | -0.112 ± 0.056 | -0.0205 ± 0.012 | -0.083 ± 0.0057 | -0.141 ± 0.035 | -0.0145 ± 0.0078 | -0.0025 ± 0.049 |
| 4H:CD106/VCAM-1 | -0.009 ± 0.0028 | -0.014 ± 0.014 | -0.0165 ± 0.013 | 0.0085 ± 0.028 | -0.004 ± 0.016 | -0.0095 ± 0.023 | 0.016 ± 0.0085 | -0.029 | -0.0155 ± 0.0064 | -0.024 ± 0.017 | -0.0205 ± 0.025 | -0.0655 ± 0.015 | -0.132 ± 0.044 | -0.0215 ± 0.013 | -0.0495 ± 0.056 | -0.123 ± 0.085 | -0.003 ± 0.027 | -0.0585 ± 0.083 |
| 3C:CXCL8/IL-8 | -0.004 ± 0.0014 | 0.0045 ± 0.012 | 0.023 ± 0.044 | 0.0295 ± 0.044 | 0.027 ± 0.02 | 0.0555 ± 0.0064 | 0.009 ± 0.024 | 0.0095 ± 0.026 | 0.049 ± 0.047 | 0.016 ± 0.054 | -0.01 ± 0.011 | -0.026 ± 0.0085 | -0.0455 ± 0.018 | -0.0155 ± 0.015 | -0.02 ± 0.0085 | 0.003 ± 0.024 | 0.0085 ± 0.011 | 0.0165 ± 0.005 |
| BE3C:HLA-DR | -0.0345 ± 0.035 | -0.018 ± 0.011 | -0.0225 ± 0.005 | -0.012 ± 0.018 | -0.194 ± 0.023 | -0.191 ± 0.042 | -0.0155 ± 0.016 | -0.189 ± 0.014 | -0.409 ± 0.1 | -0.0075 ± 0.021 | -0.0095 ± 0.0021 | -0.0165 ± 0.021 | -0.032 ± 0.044 | 0.0145 ± 0.022 | -0.02 ± 0.0071 | -0.0575 ± 0.005 | -0.0065 ± 0.0035 | -0.0225 ± 0.0092 |
| 4H:CD62P/P-selectin | 0.0135 ± 0.042 | 0.0445 ± 0.025 | -0.003 ± 0.02 | 0.0375 ± 0.015 | 0.085 ± 0.0042 | 0.086 ± 0.027 | 0.0345 ± 0.0078 | 0.061 ± 0.016 | 0.097 ± 0.018 | -0.019 ± 0.062 | -0.007 ± 0.031 | -0.0075 ± 0.036 | -0.108 ± 0.011 | 0.0065 ± 0.064 | -0.064 ± 0.047 | -0.102 ± 0.036 | 0.0005 ± 0.037 | -0.0185 ± 0.06 |
| BE3C:CXCL10/IP-10 | -0.0015 ± 0.005 | 0.0045 ± 0.015 | 0.013 ± 0.0099 | -0.0455 ± 0.0035 | -0.505 ± 0.0057 | -0.589 ± 0.014 | -0.0365 ± 0.013 | -0.478 ± 0.054 | -0.7725 ± 0.0035 | 0.0015 ± 0.028 | 0.0115 ± 0.028 | 0.001 ± 0.024 | 0.001 ± 0.0085 | -0.0025 ± 0.00071 | -0.007 ± 0.0057 | -0.012 ± 0.013 | 0 ± 0.016 | 0.0025 ± 0.011 |
| LPS:CD62E/E-Selectin | -0.0045 ± 0.015 | -0.016 ± 0.0057 | 0.0075 ± 0.011 | 0.0005 ± 0.037 | 0.0035 ± 0.00071 | 0.0205 ± 0.00071 | -0.002 ± 0.0014 | -0.0055 ± 0.036 | 0.019 ± 0.0028 | 0.0155 ± 0.0035 | 0.0075 ± 0.015 | 0.0145 ± 0.013 | -0.006 | 0.0345 ± 0.023 | 0.033 ± 0.0071 | 0.0015 ± 0.04 | -0.003 ± 0.027 | -0.0175 ± 0.057 |
| BF4T:MMP-9 | 0.0165 ± 0.07 | 0.002 ± 0.065 | 0.0285 ± 0.046 | 0.024 ± 0.017 | 0.048 ± 0.02 | 0.0665 ± 0.046 | 0.02 ± 0.0028 | 0.033 ± 0.0099 | 0.019 ± 0.095 | 0.0365 ± 0.087 | -0.001 ± 0.04 | 0.004 ± 0.021 | 0.0215 ± 0.023 | -0.0015 ± 0.035 | -0.006 ± 0.057 | -0.013 ± 0.058 | 0.007 ± 0.044 | -0.0065 ± 0.028 |

Source: the supplement of paper PMC10331698
